The values that follow come from patent publication US20240344059A1, “Gene Editing of Regulatory Elements” (Vertex Pharmaceuticals Incorporated, priority 2021, published 2024).

One test relates to DMPK mRNA. In words: DMPK mRNA expression by ddPCR (SaCas9/SluCas9 sgRNA pairs). The following applies: DM1 myotubes, 3 μM DNA-PKi Compound 6 for 48 h. The format is cell-based, human. The source says: mRNA of DM1 myotubes was isolated with the Kingfisher Flex purification system (Thermal Fisher) in 96-well format following the manufacturer's instruction. cDNA was synthesized with SuperScript™ IV VILO™ Master Mix with ezDNase™ Enzyme (Thermal Fisher) following mRNA isolation.
The primers and probes of ddPCR for hDMPK and GAPDH were pre-designed by Fisher Scientifics qPCR assays (Hs00266705_g1 and Hs01094329_m1). For DMPK expression, one target primer/probe set was used to detect DMPK expression levels, and one reference primer/probe set was used to detect GAPDH expression levels. The 24 μL of ddPCR reaction consisted of 12 μL of Supermix for Probes (no dUTP) (Bio-Rad Laboratories), 1 μL of Reference primers mix (21.6 μM), 1 μL of Reference probe (6 μM), 1 μL of Target primers mix (21.6 μM), 1 μL of Target probe (6 μM), 2 μL of H2O and 6 μL of sample genomic DNA. Droplets were generated using probe oil with the QX200 Droplet Generator (Bio-Rad Laboratories). […] The cycled plate was then transferred and read in the FAM and HEX channels using the Bio-Rad QX200 Droplet Reader (Bio-Rad Laboratories). ddPCR analysis was performed with the Bio-Rad QuantaSoft Pro Software. […]

For test [1], the system named is CUG foci in myonuclei of DM1 patient myotubes. In words: FISH staining of CUG RNA foci (SaCas9/SluCas9 sgRNA pairs). The format is cell-based, human. The following applies: DM1 patient myotubes, DNA-PKi group versus DMSO group. The method, then: Primary myotubes were fixed for 15 min with 4% paraformaldehyde (PFA) and washed five times with 1×PBS for 5 min each at room temperature. Before staining, cells were permeabilized with 0.5% triton X-100 in 1×PBS for 5 min at room temperature, and then washed with 30% formamide and 2× saline-sodium citrate (SSC) mixture for 10 min at room temperature. Cells were then stained with 1 ng/μL of Cy3-PNA(CAG)5 probe (PNA Bio, F5001) diluted in 30% formamide, 2×SSC, 2 μg/mL BSA, 66 μg/mL yeast tRNA, and 2 mM vanadyl complex for 15 min at 80° C. Following probe staining, cells were then washed in 30% formamide and 2×SSC mixture for 30 min at 60° C., then washed in 30% formamide and 2×SSC mixture for 30 min at 55° C., and then washed in 1×SSC solution for 10 min at room temperature, and finally washed in 1×PBS for 10 min at room temperature. For staining of myotube nuclei, cells were stained with anti-Myogenin antibody diluted in 1% bovine serum albumin (BSA) for overnight at 4° C. and washed twice with 1×PBS for 5 min each at room temperature. Cells were then incubated with the secondary antibody goat anti-rabbit Alexa 488 (Thermo Fisher, A32731) diluted in 1% BSA for 1 hr at room temperature and washed twice with 1×PBS for 5 min each at room temperature. Next, cells were stained with Hoechst solution (Thermo Fisher, H3569) at 0.1 mg/ml for 5 min and washed once with 1×PBS for 5 min. PBS was aspirated and fresh 100 μl of fresh PBS was added to each well. High-throughput acquisition of images was completed with the ImageXpress Micro Confocal High-Content Imaging System (Molecular Devices). RNA foci quantifications were accomplished with a customized analysis module of the MetaXpress program (Molecular Devices).
Each sgRNA pair consisting of one upstream sgRNA and one downstream sgRNA were assembled with recombinant SaCas9 or SluCas9 protein, respectively, into a ribonucleoprotein (RNP) complex and delivered into primary DM1 patient myoblasts with Amaxa 4D-Nucleofector. Post nucleofection, myoblasts were divided into 6 groups and were treated with DMSO (Groups 1-3) or 3 μM of DNA-dependent Protein Kinase Inhibitor (DNA-PKi) Compound 6 (Group 4-6) for 48 hrs. DNA-PKi was used to boost the excision efficiency and to better understand the contribution of E-boxes to DMPK transcription. 72 hrs post nucleofection, myoblasts from Groups 1 and 4 were collected for genomic DNA isolation, whereas the rest of the groups were subjected to myogenic differentiation to form myotubes. The myotubes were collected on Day 15 post nucleofection (Day 12 post differentiation) for mRNA isolation (Group 2 and 5) and RNA foci staining (Groups 3 and 6) (FIG. 9).

As for `Cc1ccnc(N[C@H]2CC[C@@H](Oc3cc(N4CCOCC4)cc4nonc34)CC2)n1` [Compound 6], the “hDMPK mRNA reduction, DNA-Pki treatment group versus DMSO group” value in the test with DMPK mRNA is on record as “more dramatic hDMPK mRNA reduction”. In addition, the “further average foci number reduction in myonuclei by DNA-PKi” value in test [1] is given as “no further average foci number reduction”.
